Data reported in patent publication US4259337A, “Method for using m-trifluoromethylphenyl-piperidines” (Roussel Uclaf, priority 1976, dated 1981).
Counter-ions that a name gives are not always drawn.

How the values were obtained:
[1] = tested on: catalepsy provoked by prochlorpemazine; test: Antagonism of catalepsy provoked by prochlorpemazine; type: in vivo; design: key to Antagonism of catalepsy provoked by prochloropemazine for a determined dose in mg/kg: evaluated at the height of the effect was expressed by an increasing number of + signs for a given dose; ++: evaluated at the height of the effect was expressed by an increasing number of + signs for a given dose; +++: evaluated at the height of the effect was expressed by an increasing number of + signs for a given dose; conditions: rats; for Antagonism of catalepsy provoked by prochloropemazine for a determined dose in mg/kg: prochlorpemazine 15 mg/kg i.p.; for antagonism toward the cataleptigenic activity of prochlorpemazine: in words, i.p.
Method: The tests are carried out on groups of 5 young rats weighing about 100 g and the cataleptigenic agent used is prochlorpemazine at a dose of 15 mg/kg intraperitoneally. The product studied was administered simultaneously in the same way. The intensity of the catalepsy was evaluated by the test of crossing of the homolateral paws [BOISSIER et al, Therapie, Vol. 18 (1963), p. 1257] every hour for 7 hours. The rating adopted is the following: the animal refuses the crossing of the front paws with the homolateral rear paws (0), he retains the desired crossing on one side only (0.5), he accepts the crossing on both sides (1). The sum of the scores by groups read at different periods after the administration of the product studied is determined. The antagonism of catalepsy provoked by prochlorpemazine evaluated at the height of the effect was expressed by an increasing number of + signs for a given dose and the results are reported in Table II.

[2] = tested on: rigidity provoked by reserpine; test: Antagonism with respect to reserpinic rigidity; type: in vivo; design: key to Antagonism to reserpinic rigidity for a determined dose in mg/kg: ++: It was expressed by an increasing number of + signs for a given dose expressed in mg/kg; conditions: rat; for Antagonism to reserpinic rigidity for a determined dose in mg/kg: reserpine 10 mg/kg i.v., E.M.G.
Method: The antagonism of the compounds with respect to reserpinic rigidity [Jurna I: Arch. Pharmak. Exp. Path. Vol. 260 (1968), p. 80-88] was studied on the rat. The tests consisted of recording, by means of electrodes placed on the muscles of the anterior cavity of one of the rear paws of the animal, the electromyogram (E.M.G.) provoked by a dorsiflection of the instep. A dose of 10 mg/kg of reserpine was administered intraveneously, then, one half hour later when the hypertonicity of the muscle was maximal, the product to be studied was administered in the same way at a dose of 10 mg/kg or of 20 mg/kg.
The electromyographic responses obtained before and after treatment, were compared in intensity and in time. The inhibition observed on the electromyogram expressed the antagonism exercised by the product with respect to the rigidity provoked by reserpine. It was expressed by an increasing number of + signs for a given dose expressed in mg/kg.

[3] = tested on: mice; test: Anorexigenic activity in mice; type: in vivo; conditions: 20 mg/kg i.p., food intake over following 24 hours
Method: The anorexigenic activity was studied with mice and the animals receive the product studied intraperitoneally 30 minutes before the start of the test. The quantities of nourishment absorbed in the course of the following 24 hours was noted and compared with the quantity of nourishment absorbed in the course of the same period by animals not receiving the product studied. The anorexigenic activity was expressed by an increasing number of + signs for a given dose expressed in mg/kg.

[4] = tested on: dog; test: Anorexigenic activity in the dog; type: in vivo; conditions: administered in the first ball, 7 hours
Method: The anorexigenic activity was studied on the dog using the method of ADAMS et al [J. Pharm. Sci., Vol. 53 (1964), p. 1405]. On the day of the test of a substance presumed to be anorexigenic, the individual daily ration of the animals was broken down into substantially equal balls (10 to 20 g) which were offered to the dogs every 10 minutes for 7 hours. Normally, the animals regularly accept the successive balls offered to them. Refusal translates the anorexiant effectiveness of the compound studied which was administered in the first ball. The anorexigenic activity was expressed by an increasing number of + signs for a given dose expresses in mg/kg.

[5] = Acute toxicity; conditions: mouse, in vivo, ip; mice, intraperitoneal, 48 hours after administration
Method: The LD50, the dose at which 50% of the mice died after the intraperitoneal administration of the products to mice was determined 48 hours after the administration.

[6] = tested on: stereotypies provoked by dexamphetamine; test: Potentiation of stereotypies provoked by dexamphetamine; type: in vivo; design: Potentiation of stereotypies provoked by dexamphetamine for a determined dose in mg/kg: key to the marks not given beside the values; conditions: rats; for Potentiation of stereotypies provoked by dexamphetamine for a determined dose in mg/kg: dexamphetamine sulfate 3 mg/kg i.p.
Method: Each animal was placed individually in a grilled cage (29×25 ×17 cm) containing a few wood shavings. A does of 3 mg/kg of dexamphetamine sulfate was injected intraperitoneally one half hour after the intraperitoneal administration of the product studied. The behavior of the animals was noted every half hour for 5 hours with the rating recommended by […] et al [Brit. J. Pharmacol., Vol. 23 (1964), p. 330-350]. The animalis asleep (0), he is awake but immobile (1), he is turning in his cage (2), he is sniffing the lid (3), he is licking the sides (4), he is touching the shavings or the bars of the cage with his teeth (5), he is biting the chips or bars of the cage (6). The total of the scores per group at different periods after the administration of the product studied was determined and the potentiation of the stereotypies evaluated at the height of the effect is expressed by an increasing number of + signs for a given dose.

SMILES	Antagonism of catalepsy provoked by prochloropemazine for a determined dose in mg/kg ([1]; 20 mg/kg i.p.)	antagonism toward the cataleptigenic activity of prochlorpemazine [1]	Antagonism to reserpinic rigidity for a determined dose in mg/kg ([2]; 20 mg/kg i.v.)	anorexigenic activity [3]	anorexigenic activity ([4]; 20 mg/kg)	LD50 at 48 h [5]	Potentiation of stereotypies provoked by dexamphetamine for a determined dose in mg/kg ([6]; 20 mg/kg i.p.)	Potentiation of stereotypies provoked by dexamphetamine for a determined dose in mg/kg ([6]; 0.2 mg/kg i.p.)	activity of potentiation of stereotypies provoked by dexamphetamine ([6]; in words, i.p.)	Antagonism of catalepsy provoked by prochloropemazine for a determined dose in mg/kg ([1]; 50 mg/kg i.p.)	Antagonism to reserpinic rigidity for a determined dose in mg/kg ([2]; 10 mg/kg i.v.)	Antagonism to reserpinic rigidity ([2]; in words, i.v.)	anorexigenic activity ([4]; 25 mg/kg)	Potentiation of stereotypies provoked by dexamphetamine for a determined dose in mg/kg ([6]; 2 mg/kg i.p.)
Cl.FC(F)(F)c1cccc(C2CCCNC2)c1 (stereo not drawn) [Example 1, 3-(m-trifluoromethylphenyl)-piperidine hydrochloride]	++	substantial antagonism	++	+	+	~150 mg/kg	–	–	–	–	–	–	–	–
FC(F)(F)c1cccc(C2CCCN(Cc3ccccc3)C2)c1 (stereo not drawn) [Example 6, N-benzyl-3-(m-trifluoromethylphenyl)-piperidine hydrochloride]	–	–	–	–	–	~150 mg/kg	++	–	–	–	–	–	–	–
CC(C)N1CCCC(c2cccc(C(F)(F)F)c2)C1.Cl (stereo not drawn) [Example 4, N-isopropyl-3-(m-trifluoromethylphenyl)-piperidine hydrochloride]	–	substantial antagonism	–	+	–	~100 mg/kg	–	+++	very high activity	+++	++	very high activity	+	–
CN1CCCC(c2cccc(C(F)(F)F)c2)C1.Cl (stereo not drawn) [Example 3, N-methyl-3-(m-trifluoromethylphenyl)-piperidine hydrochloride]	+	–	++	–	–	~100 mg/kg	–	–	–	–	–	–	–	++
